Measured values: US9475817B2 (BRISTOL-MYERS SQUIBB COMPANY, priority 2012, dated 2016)

Columns and labels:
CK1δ = CK1δ (Homo sapiens (Human), UniProt P48730); test: CK1δ kinase assay (Caliper LabChip, fluoresceinated peptide substrate); assay type: biochemical; details: 200 pM CK1δ, 50 μM ATP, 1.5 μM peptide substrate, 22 hours room temperature
Description: (§1) CK1ε and CK1δ Kinase Assays
(§2) The kinase assay was performed in V-bottom 384-well plates. […] The reaction was incubated at room temperature for 22 hours and terminated by adding 45 μl of 35 mM EDTA to each sample. […] Compounds were dissolved at 10 mM in dimethylsulfoxide (DMSO) and evaluated at eleven concentrations. IC50 values were derived by non-linear regression analysis.

CK1ε = CK1ε (Homo sapiens (Human), UniProt P49674); test: CK1ε kinase assay (Caliper LabChip, fluoresceinated peptide substrate); assay type: biochemical; details: 200 pM CK1ε, 50 μM ATP, 1.5 μM peptide substrate, 22 hours room temperature
CK1ε, sequence (P49674 whole entry): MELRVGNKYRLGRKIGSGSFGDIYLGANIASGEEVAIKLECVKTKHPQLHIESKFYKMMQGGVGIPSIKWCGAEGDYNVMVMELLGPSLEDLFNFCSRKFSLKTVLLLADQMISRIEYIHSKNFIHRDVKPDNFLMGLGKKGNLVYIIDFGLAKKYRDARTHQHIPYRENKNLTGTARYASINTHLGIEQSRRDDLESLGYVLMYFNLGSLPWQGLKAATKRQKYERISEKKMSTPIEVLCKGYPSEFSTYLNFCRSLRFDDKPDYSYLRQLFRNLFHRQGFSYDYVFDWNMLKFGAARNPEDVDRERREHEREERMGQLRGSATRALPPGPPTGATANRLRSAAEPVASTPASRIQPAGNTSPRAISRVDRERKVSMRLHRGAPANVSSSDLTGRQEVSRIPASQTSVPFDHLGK
Description: as §1, §2

CK1δ, sequence (P48730 whole entry): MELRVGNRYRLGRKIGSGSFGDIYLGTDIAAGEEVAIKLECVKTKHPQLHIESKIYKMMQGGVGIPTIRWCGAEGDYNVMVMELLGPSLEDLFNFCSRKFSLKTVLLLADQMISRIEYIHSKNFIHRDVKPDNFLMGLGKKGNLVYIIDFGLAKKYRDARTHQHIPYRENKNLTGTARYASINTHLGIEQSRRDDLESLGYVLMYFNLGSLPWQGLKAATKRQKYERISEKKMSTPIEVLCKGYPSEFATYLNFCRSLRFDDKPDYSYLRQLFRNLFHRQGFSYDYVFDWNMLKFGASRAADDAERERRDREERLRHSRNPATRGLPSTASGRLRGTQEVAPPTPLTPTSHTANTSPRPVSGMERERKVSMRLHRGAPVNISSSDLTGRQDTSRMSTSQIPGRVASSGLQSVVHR

Row | Structure (SMILES) | IC50 (CK1δ) [nM] | IC50 (CK1ε) [nM]
1 | O=C(Nc1cn2nc(-c3cn(C4CC4)nc3-c3ccc(F)cc3)ccc2n1)c1cc(F)nc(F)c1 [Compound 105, N-(6-(1-cyclopropyl-3-(4-fluorophenyl)-1H-pyrazol-4-yl)imidazo[1,2-b]pyridazin-2-yl)-2,6-difluoroisonicotinamide] | 4.8 | 46.5
2 | O=C(Nc1cn2nc(-c3cn(C4CC4)nc3-c3ccc(F)cc3)ccc2n1)c1ccncc1F [Compound 106, N-(6-(1-cyclopropyl-3-(4-fluorophenyl)-1H-pyrazol-4-yl)imidazo[1,2-b]pyridazin-2-yl)-3-fluoroisonicotinamide] | 3.5 | 14
3 | O=C(Nc1cn2nc(-c3cn(C4CC4)nc3-c3ccc(F)cc3)ccc2n1)c1cccc(-c2cccnc2)c1 [Compound 108, N-(6-(1-cyclopropyl-3-(4-fluorophenyl)-1H-pyrazol-4-yl)imidazo[1,2-b]pyridazin-2-yl)-3-(pyridin-3-yl) benzamide] | 2 | 32.6
4 | Cc1nc(-c2cccnc2)sc1C(=O)Nc1cn2nc(-c3cn(C4CC4)nc3-c3ccc(F)cc3)ccc2n1 [Compound 109, N-(6-(1-cyclopropyl-3-(4-fluorophenyl)-1H-pyrazol-4-yl)imidazo[1,2-b]pyridazin-2-yl)-4-methyl-2-(pyridin-3-yl)thiazole-5-carboxamide] | 2.5 | 12.3
5 | Cc1nc(-c2ccccn2)sc1C(=O)Nc1cn2nc(-c3cn(C4CC4)nc3-c3ccc(F)cc3)ccc2n1 [Compound 110, N-(6-(1-cyclopropyl-3-(4-fluorophenyl)-1H-pyrazol-4-yl)imidazo[1,2-b]pyridazin-2-yl)-4-methyl-2-(pyridin-2-yl)thiazole-5-carboxamide] | 5.5 | 28.8
6 | Cc1nc(-c2ccncc2)sc1C(=O)Nc1cn2nc(-c3cn(C4CC4)nc3-c3ccc(F)cc3)ccc2n1 [Compound 111, N-(6-(1-cyclopropyl-3-(4-fluorophenyl)-1H-pyrazol-4-yl)imidazo[1,2-b]pyridazin-2-yl)-4-methyl-2-(pyridin-4-yl)thiazole-5-carboxamide] | 6.2 | 35
7 | COc1cc(C(=O)Nc2cn3nc(-c4c(-c5ccc(F)cc5)nn(C)c4N4CCNCC4)ccc3n2)ccn1 [Compound 118, N-(6-(3-(4-Fluorophenyl)-1-methyl-5-(piperazin-1-yl)-1H-pyrazol-4-yl)imidazo[1,2-b]pyridazin-2-yl)-2-methoxyisonicotinamide] | 0.8 | 3.6
8 | Cn1nc(-c2ccc(F)cc2)c(-c2ccc3nc(NC(=O)c4ccnc(F)c4)cn3n2)c1N1CCN(C[C@@H](O)C(F)(F)F)CC1 [Compound 127, (R)-2-Fluoro-N-(6-(3-(4-fluorophenyl)-1-methyl-5-(4-(3,3,3-trifluoro-2-hydroxypropyl)piperazin-1-yl)-1H-pyrazol-4-yl)imidazo[1,2-b]pyridazin-2-yl)isonicotinamide] | 1 | 6.2
9 | Cn1nc(-c2ccc(F)cc2)c(-c2ccc3nc(NC(=O)c4ccnc(F)c4)cn3n2)c1N1CCN(C[C@H](O)C(F)(F)F)CC1 [Compound 128, (S)-2-Fluoro-N-(6-(3-(4-fluorophenyl)-1-methyl-5-(4-(3,3,3-trifluoro-2-hydroxypropyl)piperazin-1-yl)-1H-pyrazol-4-yl)imidazo[1,2-b]pyridazin-2-yl)isonicotinamide] | 1.5 | 10.6
10 | Cn1nc(-c2ccc(F)cc2)c(-c2ccc3nc(NC(=O)c4ccncc4)cn3n2)c1N1CCNCC1 [Compound 129, N-(6-(3-(4-Fluorophenyl)-1-methyl-5-(piperazin-1-yl)-1H-pyrazol-4-yl)imidazo[1,2-b]pyridazin-2-yl)isonicotinamide] | 0.9 | 3.3

The remaining lines, values ahead:

Row | IC50 (CK1δ) [nM] | IC50 (CK1ε) [nM] | Structure (SMILES)
11 | 0.6 | 2.3 | Cn1nc(-c2ccc(F)cc2)c(-c2ccc3nc(NC(=O)c4ccnc(F)c4)cn3n2)c1N1CCNCC1 [Compound 113, 2-fluoro-N-(6-(3-(4-fluorophenyl)-1-methyl-5-(piperazin-1-yl)-1H-pyrazol-4-yl)imidazo[1,2-b]pyridazin-2-yl)isonicotinamide]
12 | 0.7 | 9.3 | CN1CCN(c2c(-c3ccc4nc(NC(=O)c5ccnc(F)c5)cn4n3)c(-c3ccc(F)cc3)nn2C)CC1 [Compound 116, 2-fluoro-N-(6-(3-(4-fluorophenyl)-1-methyl-5-(4-methylpiperazin-1-yl)-1H-pyrazol-4-yl)imidazo [1,2-b]pyridazin-2-yl)isonicotinamide]
13 | 0.3 | 10.1 | Cn1nc(-c2ccc(F)cc2)c(-c2ccc3nc(NC(=O)c4ccnc(F)c4)cn3n2)c1N1CCN(CCCF)CC1 [Compound 119, 2-Fluoro-N-(6-(3-(4-fluorophenyl)-5-(4-(3-fluoropropyl)piperazin-1-yl)-1-methyl-1H-pyrazol-4-yl)imidazo[1,2-b]pyridazin-2-yl)isonicotinamide]
14 | 0.73 | 18.6 | COCCN1CCN(c2c(-c3ccc4nc(NC(=O)c5ccnc(F)c5)cn4n3)c(-c3ccc(F)cc3)nn2C)CC1 [Compound 120, 2-Fluoro-N-(6-(3-(4-fluorophenyl)-5-(4-(2-methoxyethyl)piperazin-1-yl)-1-methyl-1H-pyrazol-4-yl)imidazo[1,2-b]pyridazin-2-yl)isonicotinamide]
15 | 1.2 | 14.4 | Cn1nc(-c2ccc(F)cc2)c(-c2ccc3nc(NC(=O)c4ccnc(F)c4)cn3n2)c1N1CCN(C(=O)CC(F)(F)F)CC1 [Compound 121, 2-Fluoro-N-(6-(3-(4-fluorophenyl)-1-methyl-5-(4-(3,3,3-trifluoropropanoyl)piperazin-1-yl)-1H-pyrazol-4-yl)imidazo[1,2-b]pyridazin-2-yl)isonicotinamide]
16 | 0.1 | 0.2 | Cn1nc(-c2ccc(F)cc2)c(-c2ccc3nc(NC(=O)c4ccnc(F)c4)cn3n2)c1N1CCN(C(=O)CN)CC1 [Compound 123, N-(6-(5-(4-(2-Aminoacetyl)piperazin-1-yl)-3-(4-fluorophenyl)-1-methyl-1H-pyrazol-4-yl)imidazo[1,2-b]pyridazin-2-yl)-2-fluoroisonicotinamide]
17 | 0.2 | 1.3 | Cn1nc(-c2ccc(F)cc2)c(-c2ccc3nc(NC(=O)c4ccnc(F)c4)cn3n2)c1N1CCN(CC(N)=O)CC1 [Compound 124, N-(6-(5-(4-(2-Amino-2-oxoethyl)piperazin-1-yl)-3-(4-fluorophenyl)-1-methyl-1H-pyrazol-4-yl)imidazo[1,2-b]pyridazin-2-yl)-2-fluoroisonicotinamide]
18 | 0.6 | 4.6 | Cn1nc(-c2ccc(F)cc2)c(-c2ccc3nc(NC(=O)c4ccnc(F)c4)cn3n2)c1N1CCN(CCC#N)CC1 [Compound 125, N-(6-(5-(4-(2-Cyanoethyl)piperazin-1-yl)-3-(4-fluorophenyl)-1-methyl-1H-pyrazol-4-yl)imidazo[1,2-b]pyridazin-2-yl)-2-fluoroisonicotinamide]
19 | 2.9 | 124 | Cn1nc(-c2ccc(F)cc2)c(-c2ccc3nc(NC(=O)c4ccnc(F)c4)cn3n2)c1N1CCN(CCS(C)(=O)=O)CC1 [Compound 126, 2-Fluoro-N-(6-(3-(4-fluorophenyl)-1-methyl-5-(4-(2-(methylsulfonyl)ethyl)piperazin-1-yl)-1H-pyrazol-4-yl)imidazo[1,2-b]pyridazin-2-yl)isonicotinamide]
